The values below come from US20200129472A1, “COMPOSITIONS AND METHODS FOR THE TREATMENT OF PERIPHERAL ARTERY DISEASE” (BOARD OF REGENTS OF THE UNIVERSITY OF NEBRASKA, priority 2017, published 2020).

The subject of this experiment is rat model of peripheral arterial disease (PAD rats, femoral artery occlusion). The experiment is described as follows: Exercise intolerance test (motorized treadmill) in PAD rat model after epidural delivery of RTX. The format is in vivo. The text has this:
Catheter-based femoral artery occlusion was created by placing a modified PE50 catheter (its cavity filled with solid agarose) between common iliac artery and left femoral artery to interrupt hindlimb blood supply. The whole procedure is similar to the telemetry implant surgery. Generally, rats were anesthetized using a 2%-3% isoflurane:oxygen mixture. A warm water blanket was used to provide intra-operative heat support to prevent hypothermia. Rats were placed in the prone position and the surgical site (i.e., the femoral area) was cleared of hair, prepared with iodine or chlorhexidine, and the femoral artery was exposed. After a small incision was made, a modified PE50 catheter was placed into the femoral artery and advanced about 3.5 cm to the iliac artery at the aortic bifurcation. The distal end of the femoral artery was ligated with 4-0 Dexon suture. The skin was closed with external interrupted 4-0 or 3-0 prolene suture, which were removed in 10-14 days after the surgery.
Exercise testing for determination of intolerance time was performed in a motorized treadmill equipped with an electrical grid at the end of the lane. The animals were initially acclimated to the treadmill environment at a low speed (13 m/min, 0% grade) for 6 minutes. Then, data was recorded of the exercise duration and distance at the speed of the treadmill of 13 m/minute (0% grade) and increased of 3 m/minute each 2 minutes until exhaustion. Exhaustion was defined operationally as the time at which the rat was unable, or refused, to maintain its running speed for more than 15 seconds despite encouragement by mild electrical stimulation. The maximal speed and running distance were recorded when exhaustion occurred. Two methods were used to measure the exercise intolerance time in sham, PAD and PAD+RTX rats. With the first method, individual rats were run with 90%, 75%, 50% and 25% of its own maximal speed. The exercise intolerance time corresponding to individual running intensity was recorded and compared among groups. With the second method, a fixed running speed (37 m/minute) was used to run all rats among groups to get their exercise intolerance time.
To deplete skeletal muscle afferent neuron soma (L4-L5 DRGs), rats were anesthetized using 2%-3% isoflurane:oxygen mixture. Rats were placed in the prone position and the surgical site was cleared of hair, prepared with iodine or chlorhexidine. A small midline incision was made in the region of the T13-L1 thoracic vertebrae. Following dissection of the superficial muscles, a small hole (approximately 3 mm*3 mm) was made in the left side of T13 vertebral (ipsilateral). A polyethylene catheter (PE-10) was inserted into the subarachnoid space via left hole and gently advanced about 4.0 cm to the left L5 level in which the first injection (6 μg/ml, 10 μl) was made at a very slow speed to minimize the diffusion of RTX. Then the catheter was pulled back to left L4 to perform another injection (10 μl/each). Then the catheter was held for 15 minutes and then withdrawn. After that, silicon gels were used to seal the hole in the T13 vertebral. The skin overlying the muscle was closured by 3-0 polypropylene suture. Simple interrupted sutures were used to close the skin. Skin suture were removed 10-14 days after surgery. Betadine was applied to the wound and the rats were allowed to recover from the anesthesia.
The therapeutic efficacy of resiniferatoxin was tested in a in a rat model of peripheral arterial disease. As explained above, resiniferatoxin was administered to PAD rats by lumbar epidural administration at the time of femoral arterial occlusion. The resiniferatoxin (6 μg/ml, 10 μl/per ganglia) was injected between the ipsilateral L4 and L5 vertebrae into the epidural space at a concentration of 10 μl per ganglion. Healthy rats with sham treatment were also used as a positive control.

SMILES strings stand for the structures. Entries after “also recorded” stand apart in the source; their conditions may differ.

Consider `C=C(C)[C@]12C[C@@H](C)[C@@]34O[C@@](Cc5ccccc5)(OC1C3C=C(COC(=O)Cc1ccc(O)c(OC)c1)C[C@]1(O)C(=O)C(C)=CC41)O2` (stereo partly drawn) [resiniferatoxin, [(1R,6R,13R,15R,17R)-13-benzyl-6-hydroxy-4,17-dimethyl-5-oxo-15-(prop-1-en-2-yl)-12,14,18-trioxapentacyclo[11.4.1.0^1,10.0^2,6.0^11,15]octadeca-3,8-dien-8-yl]methyl 2-(4-hydroxy-3-methoxyphenyl)acetate], for which the “ability to run for longer distances at a higher rate (time running at percent maximum intensity)” value (RTX 6 μg/ml, 10 μl per ganglion, lumbar epidural L4/L5, at the time of femoral arterial occlusion, FIG. 1D) is given as “increased ability to run for longer distances at a higher rate”. Moreover, the “ability to run at 37 m/minute (time run at 37 m/min)” value (RTX 6 μg/ml, 10 μl per ganglion, lumbar epidural L4/L5, at the time of femoral arterial occlusion, fixed speed 37 m/minute, FIG. 1C) is given as “increased ability to run at 37 m/minute”. Under “RTX 6 μg/ml, 10 μl per ganglion, lumbar epidural L4/L5, at the time of femoral arterial occlusion, vs PAD+control, FIG. 1A”, the running distance result was “increased running distances”. Further, the maximal running speed entry (RTX 6 μg/ml, 10 μl per ganglion, lumbar epidural L4/L5, at the time of femoral arterial occlusion, vs PAD+control, FIG. 1B) is reported as “increased maximal running speed”. The “exercise limitations associated with PAD” value is, setting by setting: (RTX administered 4 weeks after femoral arterial occlusion (after onset of PAD), before vs after treatment, FIG. 2) “reduces exercise limitations; also recorded: reduced the exercise limitations”; (RTX given at the time of femoral arterial occlusion, FIG. 1) “reduces the exercise limitations”. Under “RTX given at the time of femoral arterial occlusion, time after PAD surgery”, the “duration of the statistically significant improvements in exercise performance” value is listed as “lasted for months”.
